Calls of active or inactive are those of the source.
Columns and labels:
Cytochrome P450 3A4 = Cytochrome P450 3A4 (Homo sapiens, UniProt P08684);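 note: CYP3A4 tested as one member of a cytochrome P450 panel screen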
[1] = target: Photoreceptor-specific nuclear receptor (Homo sapiens, UniProt Q9Y5X4); format: functional, cell-based;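 note: CHO-S cells with Gal4-NCOR and VP16-NR2E3 two-hybrid luciferase reporter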
INS1 = test: INS-1E survival protection against cytokine death – cell-based, luminescence, retest, dose response (AID 449756); format: functional; details: Rattus norvegicus;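 note: cell death triggered by IL-1 beta plus TNF-alpha plus IFN-gamma mixture; protective hits raise ATP signal compared with cytokine alone wells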
Cytochrome P450 2C9 = Cytochrome P450 2C9 (Homo sapiens, UniProt P11712)
[2] = target: T1, Corticotropin-releasing factor receptor 2/Corticotropin-releasing factor-binding protein (Homo sapiens, UniProt P24387+Q13324); test: Dose Response confirmation of uHTS hits for small molecule antagonists of the CRF-binding protein and CRF-R2 receptor complex.; format: functional; details: read-out: IC50_Mean
T1 sequence (Q13324 whole entry): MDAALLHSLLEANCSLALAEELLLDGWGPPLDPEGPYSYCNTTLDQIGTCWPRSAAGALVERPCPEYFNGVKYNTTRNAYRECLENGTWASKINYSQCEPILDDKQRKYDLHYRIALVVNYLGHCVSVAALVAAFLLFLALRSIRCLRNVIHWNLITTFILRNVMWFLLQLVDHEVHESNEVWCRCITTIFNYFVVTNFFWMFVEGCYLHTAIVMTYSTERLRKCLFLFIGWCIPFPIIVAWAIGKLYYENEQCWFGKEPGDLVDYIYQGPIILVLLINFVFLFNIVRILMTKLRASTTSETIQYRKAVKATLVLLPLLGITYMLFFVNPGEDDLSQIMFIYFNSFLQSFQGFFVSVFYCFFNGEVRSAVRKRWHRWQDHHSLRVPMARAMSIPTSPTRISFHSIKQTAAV
T1 sequence (P24387 whole entry): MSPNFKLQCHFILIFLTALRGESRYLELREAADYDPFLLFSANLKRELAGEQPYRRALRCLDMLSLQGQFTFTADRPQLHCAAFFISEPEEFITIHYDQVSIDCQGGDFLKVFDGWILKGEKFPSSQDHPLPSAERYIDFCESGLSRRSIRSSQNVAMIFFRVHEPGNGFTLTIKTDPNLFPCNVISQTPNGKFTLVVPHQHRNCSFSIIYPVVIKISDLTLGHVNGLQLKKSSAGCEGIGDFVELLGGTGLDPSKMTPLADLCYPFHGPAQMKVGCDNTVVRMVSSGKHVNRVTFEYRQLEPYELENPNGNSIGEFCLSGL

[3] = target: T1, Corticotropin-releasing factor receptor 2/Corticotropin-releasing factor-binding protein; test: activators of CRF receptor 2 with binding protein – uHTS hits, confirmation (AID 602473); format: functional; details: read-out: EC50_Mean
[4] = blockers of CRF-binding protein–CRF-R2 complex – cell-based, uHTS hits, 384-well, dose response (AID 651639); format: functional, Homo sapiens; details: read-out: IC50_Mean
Protein Tat = target: T2, Protein Tat (Human immunodeficiency virus type 1 group M subtype B (isolate HXB2)(HIV-1), UniProt P04608); format: functional;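 note: tat binding to TAR RNA read out by fluorescence polarization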
T2 sequence (P04608 whole entry): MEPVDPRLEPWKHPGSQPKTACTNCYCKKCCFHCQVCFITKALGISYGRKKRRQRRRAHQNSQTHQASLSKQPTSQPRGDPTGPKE

Kallikrein-7 = Kallikrein-7 (Homo sapiens, UniProt P49862); test: Fluorescence Intensity-based biochemical primary high throughput dose response assay to identify activators of kallikrein-7 (K7) zymogen.
[5] = target: T3, Sentrin-specific protease 8 (Homo sapiens, UniProt Q96LD8); format: functional
T3 sequence (Q96LD8 whole entry): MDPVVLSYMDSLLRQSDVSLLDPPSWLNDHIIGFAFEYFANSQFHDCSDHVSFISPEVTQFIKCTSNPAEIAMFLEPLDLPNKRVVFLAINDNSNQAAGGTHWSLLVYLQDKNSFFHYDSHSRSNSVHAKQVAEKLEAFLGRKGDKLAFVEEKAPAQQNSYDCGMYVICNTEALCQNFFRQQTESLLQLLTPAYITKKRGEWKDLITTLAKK

[6] = target: T3, Sentrin-specific protease 8; format: functional; remark: listed apart in the source
[7] = viability loss in THP-1 monocytes – THP-1 cells, cytotoxicity control for Vif-APOBEC3G degradation inhibitor project, dose response (AID 1117359); format: functional; details: THP-1

Kallikrein-7, sequence (P49862 whole entry): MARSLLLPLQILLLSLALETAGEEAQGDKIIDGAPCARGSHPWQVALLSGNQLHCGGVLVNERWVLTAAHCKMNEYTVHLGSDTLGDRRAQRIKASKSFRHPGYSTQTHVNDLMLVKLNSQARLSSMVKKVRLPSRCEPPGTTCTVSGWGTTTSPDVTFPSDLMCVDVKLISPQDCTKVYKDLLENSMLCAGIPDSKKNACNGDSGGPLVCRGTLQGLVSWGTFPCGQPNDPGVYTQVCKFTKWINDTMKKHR
Cytochrome P450 2C9, sequence (P11712 whole entry): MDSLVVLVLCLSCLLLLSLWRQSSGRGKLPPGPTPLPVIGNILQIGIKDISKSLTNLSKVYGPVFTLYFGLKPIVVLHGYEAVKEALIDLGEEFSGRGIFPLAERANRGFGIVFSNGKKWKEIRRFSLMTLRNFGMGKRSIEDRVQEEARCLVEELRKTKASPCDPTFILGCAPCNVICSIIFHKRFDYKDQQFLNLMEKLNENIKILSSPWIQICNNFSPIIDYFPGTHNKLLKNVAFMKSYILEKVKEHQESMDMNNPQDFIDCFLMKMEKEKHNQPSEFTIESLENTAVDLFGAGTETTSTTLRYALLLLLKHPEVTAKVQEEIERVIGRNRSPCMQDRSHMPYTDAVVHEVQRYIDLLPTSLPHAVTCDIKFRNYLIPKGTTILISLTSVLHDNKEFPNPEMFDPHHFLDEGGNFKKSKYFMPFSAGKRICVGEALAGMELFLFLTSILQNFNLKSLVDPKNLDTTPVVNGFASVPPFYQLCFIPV
Photoreceptor-specific nuclear receptor, sequence (Q9Y5X4 whole entry, the tested form may be a part): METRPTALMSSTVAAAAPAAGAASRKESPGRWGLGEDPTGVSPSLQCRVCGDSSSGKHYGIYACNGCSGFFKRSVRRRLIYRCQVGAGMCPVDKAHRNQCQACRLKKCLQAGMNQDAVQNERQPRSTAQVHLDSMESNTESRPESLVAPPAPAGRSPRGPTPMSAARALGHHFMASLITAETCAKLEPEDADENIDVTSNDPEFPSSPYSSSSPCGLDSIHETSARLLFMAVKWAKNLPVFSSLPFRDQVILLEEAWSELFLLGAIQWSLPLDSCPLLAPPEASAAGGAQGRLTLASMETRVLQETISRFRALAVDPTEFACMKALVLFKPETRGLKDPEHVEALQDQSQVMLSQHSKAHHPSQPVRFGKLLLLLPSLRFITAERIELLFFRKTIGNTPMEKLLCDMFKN
Cytochrome P450 3A4, sequence (P08684 whole entry, the tested form may be a part): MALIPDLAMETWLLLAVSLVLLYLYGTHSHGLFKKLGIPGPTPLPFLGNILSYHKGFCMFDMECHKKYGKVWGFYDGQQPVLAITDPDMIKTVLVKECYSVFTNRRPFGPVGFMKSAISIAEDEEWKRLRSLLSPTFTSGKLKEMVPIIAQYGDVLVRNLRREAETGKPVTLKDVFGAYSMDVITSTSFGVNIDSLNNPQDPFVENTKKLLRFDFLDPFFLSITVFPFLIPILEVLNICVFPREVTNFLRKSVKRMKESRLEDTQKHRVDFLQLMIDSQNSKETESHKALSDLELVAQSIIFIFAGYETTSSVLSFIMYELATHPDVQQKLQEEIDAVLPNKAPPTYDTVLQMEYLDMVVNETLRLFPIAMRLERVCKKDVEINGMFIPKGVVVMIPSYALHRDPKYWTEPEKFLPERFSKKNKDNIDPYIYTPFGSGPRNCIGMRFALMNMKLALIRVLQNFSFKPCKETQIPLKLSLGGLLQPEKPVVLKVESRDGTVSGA

In the case of `O=c1cc(N2CCN(c3cccc(Cl)c3)CC2)[nH]c(=O)n1C1CCCCC1`, the AC50 (Cytochrome P450 3A4) is reported as 3.55 µM (inconclusive), the IC50 [1] is reported as 0.0374 µM (active) and the AC50 (INS1) is reported as 1.15 µM (active). For the same compound, the AC50 (Cytochrome P450 2C9) was 3.16 µM (inconclusive).

For `CCc1nnc(NS(=O)(=O)c2ccc(NC(=S)NC(=O)/C=C/c3ccccc3)cc2)s1`, the IC50 [2] was < 0.368 µM (active), the EC50 [3] was > 53 µM (inactive) and the IC50 [4] was > 20 µM (inactive).

With `Cc1ccc(S(=O)(=O)N(CC(=O)Nc2ccccc2C(=O)O)c2ccc(Cl)cc2)cc1` the IC50 [2] was 10.3 µM (active), the EC50 [3] was > 53 µM (inactive) and the IC50 [4] was 14.4 µM (active).

With `Cc1cc(Cl)cc2c1NC(=O)[C@]21[C@@H]2C(=O)N(Cc3ccccc3)C(=O)[C@@H]2[C@@H]2CCCN21` the IC50 (Protein Tat) was > 100 µM (active).

With `Cc1cc(N2CCCC2)nc2ccc(NC(=S)NCCCOC(C)C)cc12` the EC50 (Kallikrein-7) was > 69.5 µM (inactive).

For `CC(C)CCN1CCN(Cc2cccn2-c2cccnc2)CC1CCO` (stereo unspecified), the IC50 (Protein Tat) was > 100 µM (active).

For `Cc1cccc(C)c1NC(=O)C(c1ccccc1)N1CC(=O)Nc2ccccc21` (stereo unspecified), the EC50 (Kallikrein-7) was > 69.5 µM (inactive).

With `CC1(OC(=O)c2ccc(Cl)nc2)C(=O)C=C2C=C3CCCN3C=C2C1=O` (stereo unspecified) the IC50 [5] was 8.11 µM (active) and the IC50 [6] was 5.33 µM (active).

With `Cc1ccc(C(=O)Nc2ccc3nccnc3c2)cc1` the EC50 (Kallikrein-7) was 9.72 µM (active) and the AC50 (Cytochrome P450 2C9) was 35.5 µM (inconclusive).

In the case of `CC1(OC(=O)C2CCCC2)C(=O)C=C2C=C3CCCCN3C=C2C1=O` (stereo unspecified), the IC50 [5] is reported as 4.28 µM (active) and the IC50 [6] is reported as 3.82 µM (active).

In the case of `COc1cc(C)c(C2NC(=O)c3ccccc3N2)cc1C` (stereo unspecified), the CC50 [7] is reported as 2.86 µM (active).

From ChEMBL document CHEMBL1201862, “PubChem BioAssay data set” (2004)
